Data taken from patent US20250282827A1, “LIPIDATED POLYMYXIN ANALOGUES” (priority 2021, published 2025).
Converted amounts (≈) assume the structure as drawn. Read-outs that look alike come from different tables or passages of the source. Positions of bridges follow the written chain, without caps; N, C: chain ends. Non-standard residues stand in square brackets, D forms with d. Residues, ends and D or L forms follow the SMILES beside them. *: point of attachment. CH2CH2OBz(4-tBu) = CC(C)(C)c1ccc(C(=O)OCC*)cc1; Ethyl(2-decanoyloxy) = CCCCCCCCCC(=O)OCC*; Ethyl(2-OPiv) = CC(C)(C)C(=O)OCC*; Ethyl(2-OBz) = O=C(OCC*)c1ccccc1; Dab = NCC[C@H](N)C(=O)O; X4 = CCCCCCCC(=O)OCC*; X7 = CC(C)CCC(=O)OCC*; X8 = O=C(OCC*)C1CCCC1; X5 = CCC(C)C(=O)OCC*; Butyryl = CCCC(=O)*

How the values were obtained:
A. baumannii ATCC 19606 = assay type: cell-based, Acinetobacter baumannii
From the text: (§1) All 81 compounds prepared in Examples 2 and 3 underwent screening against a panel of Gram-negative bacterium to assess their ability to inhibit bacterial growth. […] The median value is presented.

[1] = test system: K. pneumoniae ATCC 700603; assay type: cell-based, Klebsiella pneumoniae
From the text: as §1

[2] = test system: K. pneumoniae ATCC MS6671; assay type: cell-based, Klebsiella pneumoniae
From the text: as §1

K. pneumoniae ATCC 33495 = assay type: cell-based, Klebsiella pneumoniae
From the text: as §1

E. coli ATCC 25922 = assay type: cell-based, Escherichia coli
From the text: as §1

E. coli ATCC MS8345 = assay type: cell-based, Escherichia coli
From the text: as §1
Expansion of the polymyxin macrocycle by substituting […]) offered little advantage in antimicrobial activity but was generally well tolerated although for A. baumanni and P. aeruginosa this was detrimental.

P. aeruginosa ATCC 27853 = assay type: cell-based, Pseudomonas aeruginosa
From the text: as §1

MIC A. baumannii ATCC 19606 (A. baumannii ATCC 19606; ATCC 19606) [µg/mL]	MIC K. pneumoniae ATCC 700603 ([1]; ATCC 700603) [µg/mL]	MIC K. pneumoniae ATCC MS6671 ([2]; ATCC MS6671) [µg/mL]	MIC K. pneumoniae ATCC 33495 (K. pneumoniae ATCC 33495; ATCC 33495) [µg/mL]	MIC E. coli ATCC 25922 (E. coli ATCC 25922; ATCC 25922) [µg/mL]	MIC E. coli ATCC MS8345 (E. coli ATCC MS8345; ATCC MS8345) [µg/mL]	MIC P. aeruginosa ATCC 27853 (P. aeruginosa ATCC 27853; ATCC 27853) [µg/mL]	Structure (SMILES)	MIC A. baumannii ATCC 19606 (A. baumannii ATCC 19606; median of triplicate) [µg/mL]	MIC K. pneumoniae ATCC 700603 ([1]; median of triplicate) [µg/mL]	MIC K. pneumoniae ATCC MS6671 ([2]; median of triplicate) [µg/mL]	MIC K. pneumoniae ATCC 33495 (K. pneumoniae ATCC 33495; median of triplicate) [µg/mL]	MIC E. coli ATCC 25922 (E. coli ATCC 25922; median of triplicate) [µg/mL]	MIC E. coli ATCC MS8345 (E. coli ATCC MS8345; colistin-resistant strain, median of triplicate) [µg/mL]	MIC P. aeruginosa ATCC 27853 (P. aeruginosa ATCC 27853; median of triplicate) [µg/mL]
16 (≈ 13.3 µM)	1 (≈ 0.829 µM)	>32	1 (≈ 0.829 µM)	1 (≈ 0.829 µM)	16 (≈ 13.3 µM)	2 (≈ 1.66 µM)	CC(C)C[C@@H]1NC(=O)[C@@H](Cc2ccccc2)NC(=O)[C@H](CCN)NC(=O)[C@@H](NC(=O)[C@H](CCN)NC(=O)[C@@H](NC(=O)[C@H](N)CSCCOC(=O)C2CCCC2)[C@@H](C)O)CCNC(=O)[C@H]([C@@H](C)O)NC(=O)[C@H](CCN)NC(=O)[C@H](CCN)NC1=O [Compound 102] (H-[dC](X8)T[Dab][Dab][Dab][dF]L[Dab][Dab]T; lactam 4-C)							
1 (≈ 0.772 µM)	0.5 (≈ 0.386 µM)	>32	0.125 (≈ 0.0966 µM)	0.25 (≈ 0.193 µM)	16 (≈ 12.4 µM)	1 (≈ 0.772 µM)	CC(C)C[C@@H]1NC(=O)[C@@H](Cc2ccccc2)NC(=O)[C@H](CCN)NC(=O)[C@@H](NC(=O)[C@H](CCN)NC(=O)[C@@H](NC(=O)[C@H](CCN)NC(=O)[C@@H](N)CSCCOC(=O)C(C)(C)C)[C@@H](C)O)CCNC(=O)[C@H]([C@@H](C)O)NC(=O)[C@H](CCN)NC(=O)[C@H](CCN)NC1=O [Compound 32] (H-C(Ethyl(2-OPiv))[Dab]T[Dab][Dab][Dab][dF]L[Dab][Dab]T; lactam 5-C)							
4 (≈ 2.86 µM)	4 (≈ 2.86 µM)	>32	0.5 (≈ 0.357 µM)	2 (≈ 1.43 µM)	32 (≈ 22.9 µM)	1 (≈ 0.715 µM)	CC(C)C[C@@H]1NC(=O)[C@@H](Cc2ccccc2)NC(=O)[C@H](CCN)NC(=O)[C@@H](NC(=O)[C@H](CCN)NC(=O)[C@@H](NC(=O)[C@H](CCN)NC(=O)[C@@H](N)CSCCOC(=O)c2ccc(C(C)(C)C)cc2)[C@@H](C)O)CCCCNC(=O)[C@H]([C@@H](C)O)NC(=O)[C@H](CCN)NC(=O)[C@H](CCN)NC1=O [Compound 28] (H-C(CH2CH2OBz(4-tBu))[Dab]T[Dab]K[Dab][dF]L[Dab][Dab]T; lactam 5-C)							
4 (≈ 3.35 µM)	2 (≈ 1.67 µM)	>32	1 (≈ 0.837 µM)	1 (≈ 0.837 µM)	16 (≈ 13.4 µM)	1 (≈ 0.837 µM)	CCC(C)C(=O)OCCSC[C@@H](N)C(=O)N[C@H](C(=O)N[C@@H](CCN)C(=O)N[C@H]1CCNC(=O)[C@H]([C@@H](C)O)NC(=O)[C@H](CCN)NC(=O)[C@H](CCN)NC(=O)[C@H](CC(C)C)NC(=O)[C@@H](Cc2ccccc2)NC(=O)[C@H](CCN)NC1=O)[C@@H](C)O (stereo partly shown) [Compound 95] (H-[dC](X5)T[Dab][Dab][Dab][dF]L[Dab][Dab]T; lactam 4-C)							
2 (≈ 1.62 µM)	2 (≈ 1.62 µM)	>32	2 (≈ 1.62 µM)	1 (≈ 0.809 µM)	16 (≈ 12.9 µM)	2 (≈ 1.62 µM)	CCCCCCCC(=O)OCCSC[C@@H](N)C(=O)N[C@H](C(=O)N[C@@H](CCN)C(=O)N[C@H]1CCNC(=O)[C@H]([C@@H](C)O)NC(=O)[C@H](CCN)NC(=O)[C@H](CCN)NC(=O)[C@H](CC(C)C)NC(=O)[C@@H](Cc2ccccc2)NC(=O)[C@H](CCN)NC1=O)[C@@H](C)O [Compound 92] (H-[dC](X4)T[Dab][Dab][Dab][dF]L[Dab][Dab]T; lactam 4-C)							
							CCCC(=O)N[C@@H](CSCCOC(=O)c1ccccc1)C(=O)N[C@@H](CCN)C(=O)N[C@H](C(=O)N[C@@H](CCN)C(=O)N[C@H]1CCNC(=O)[C@H]([C@@H](C)O)NC(=O)[C@H](CCN)NC(=O)[C@H](CCN)NC(=O)[C@H](CSCCOC(=O)c2ccccc2)NC(=O)[C@@H](Cc2ccccc2)NC(=O)[C@H](CCN)NC1=O)[C@@H](C)O [Compound 50] (Butyryl-C(Ethyl(2-OBz))[Dab]T[Dab][Dab][Dab][dF]C(Ethyl(2-OBz))[Dab][Dab]T; lactam 5-C)	1 to 2	1 (≈ 0.657 µM)	>32	0.5 to 1	0.5 (≈ 0.328 µM)	16 (≈ 10.5 µM)	1 (≈ 0.657 µM)
1 (≈ 0.733 µM)	4 (≈ 2.93 µM)	>32	0.5 (≈ 0.366 µM)	2 (≈ 1.47 µM)	2 to 4	1 (≈ 0.733 µM)	CCCCCCCCCC(=O)OCCSC[C@H](N)C(=O)N[C@@H](CCN)C(=O)N[C@H](C(=O)N[C@@H](CCN)C(=O)N[C@H]1CCNC(=O)[C@H]([C@@H](C)O)NC(=O)[C@H](CCN)NC(=O)[C@H](CCN)NC(=O)[C@H](CC(C)C)NC(=O)[C@@H](Cc2ccccc2)NC(=O)[C@H](CCN)NC1=O)[C@@H](C)O [Compound 31] (H-C(Ethyl(2-decanoyloxy))[Dab]T[Dab][Dab][Dab][dF]L[Dab][Dab]T; lactam 5-C)							
4 (≈ 2.58 µM)	4 (≈ 2.58 µM)	>32	2 (≈ 1.29 µM)	2 to 4	4 (≈ 2.58 µM)	4 (≈ 2.58 µM)	CCCCCCCCCC(=O)OCCSC[C@@H]1NC(=O)[C@@H](Cc2ccccc2)NC(=O)[C@H](CCN)NC(=O)[C@@H](NC(=O)[C@H](CCN)NC(=O)[C@@H](NC(=O)[C@H](CCN)NC(=O)[C@@H](N)CSCCOC(=O)CCCCCCCCC)[C@@H](C)O)CCNC(=O)[C@H]([C@@H](C)O)NC(=O)[C@H](CCN)NC(=O)[C@H](CCN)NC1=O [Compound 37] (H-C(Ethyl(2-decanoyloxy))[Dab]T[Dab][Dab][Dab][dF]C(Ethyl(2-decanoyloxy))[Dab][Dab]T; lactam 5-C)							
>32	2 (≈ 1.44 µM)	>32	0.5 (≈ 0.359 µM)	2 (≈ 1.44 µM)	16 to 32	0.5 (≈ 0.359 µM)	CCCCCCCCCC(=O)OCCSC[C@H](N)C(=O)N[C@@H](CCN)C(=O)N[C@H](C(=O)N[C@@H](CCN)C(=O)N[C@H]1CCCCNC(=O)[C@H]([C@@H](C)O)NC(=O)[C@H](CCN)NC(=O)[C@H](CCN)NC(=O)[C@H](CC(C)C)NC(=O)[C@@H](Cc2ccccc2)NC(=O)[C@H](CCN)NC1=O)[C@@H](C)O [Compound 25] (H-C(Ethyl(2-decanoyloxy))[Dab]T[Dab]K[Dab][dF]L[Dab][Dab]T; lactam 5-C)							
2 (≈ 1.65 µM)	1 (≈ 0.827 µM)	>32	1 (≈ 0.827 µM)	0.5 (≈ 0.414 µM)	4 (≈ 3.31 µM)	1 (≈ 0.827 µM)	CC(C)CCC(=O)OCCSC[C@@H](N)C(=O)N[C@H](C(=O)N[C@@H](CCN)C(=O)N[C@H]1CCNC(=O)[C@H]([C@@H](C)O)NC(=O)[C@H](CCN)NC(=O)[C@H](CCN)NC(=O)[C@H](CC(C)C)NC(=O)[C@@H](Cc2ccccc2)NC(=O)[C@H](CCN)NC1=O)[C@@H](C)O [Compound 98] (H-[dC](X7)T[Dab][Dab][Dab][dF]L[Dab][Dab]T; lactam 4-C)							
